Where two headings read alike, the source gives them in different places.
Columns and labels:
[1] = test system: Pseudomonas aeruginosa efflux− (MB9799), IMP-1; format: cell-based; conditions: concentration restoring susceptibility to imipenem at 2 μg/mL in the presence of a class A, C, D serine β-lactamase inhibitor closely related to relebactam
How it was run: (§1)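 P. aeruginosa PAO1-derived IMP-1 strains, efflux+ MB9798 and efflux− MB9799, tested by standard microbroth MIC with imipenem and/or ceftazidime fixed, usually at CLSI breakpoint, plus fixed class A/C β-lactamase inhibitor against AmpC. Inhibitor titrated; concentration restoring susceptibility recorded; MB9798/MB9799 fold difference indicates efflux.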

VIM-1 = VIM-1 (Pseudomonas aeruginosa (strain ATCC 15692 / DSM 22644 / CIP 104116 / JCM 14847 / LMG 12228 / 1C / PRS 101 / PAO1), UniProt A0A0F7KYQ8); assay: biochemical; conditions: CCF2-FA substrate, 30 pM enzyme, 2 hours at 25° C.
How it was run: (§2)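 Enzyme activity was measured by fluorescence using CCF2-FA, a cephalosporin-linked 7-hydroxycoumarin/fluorescein substrate, with inhibitor, metallo-β-lactamase and substrate incubated together for 2 hours at 25° C. IC50 came from a 4-parameter fit of inhibition versus log inhibitor concentration.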

NDM-1 = NDM-1 (Klebsiella pneumoniae, UniProt C7C422); assay: biochemical; format: biochemical; conditions: fluorescence assay, CCF2-FA substrate, 1 pM enzyme, 2 hours at 25° C.; read-out: NDM-1 IC50
Chain of NDM-1 (C7C422 whole entry, looked up, species assumed): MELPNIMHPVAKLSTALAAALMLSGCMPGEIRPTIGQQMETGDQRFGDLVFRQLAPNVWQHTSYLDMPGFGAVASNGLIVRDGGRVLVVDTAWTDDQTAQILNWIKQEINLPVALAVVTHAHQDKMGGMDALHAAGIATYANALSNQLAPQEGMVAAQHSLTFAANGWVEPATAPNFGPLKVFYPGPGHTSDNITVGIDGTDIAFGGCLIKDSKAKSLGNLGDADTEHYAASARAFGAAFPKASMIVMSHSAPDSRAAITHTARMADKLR
How it was run: as §2

IMP-1 = IMP-1 (Serratia marcescens, UniProt P52699); assay: biochemical; format: biochemical; conditions: fluorescence assay, CCF2-FA substrate, 2 pM enzyme, 2 hours at 25° C.; read-out: IMP-1 IC50
Chain of IMP-1 (P52699 whole entry, looked up, species assumed): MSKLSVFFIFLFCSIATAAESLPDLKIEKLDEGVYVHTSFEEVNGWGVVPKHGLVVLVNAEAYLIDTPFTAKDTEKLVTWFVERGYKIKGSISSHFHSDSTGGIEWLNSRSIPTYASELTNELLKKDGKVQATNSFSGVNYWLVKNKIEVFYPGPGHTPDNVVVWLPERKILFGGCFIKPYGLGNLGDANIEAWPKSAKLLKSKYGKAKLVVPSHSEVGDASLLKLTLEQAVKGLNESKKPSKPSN
How it was run: as §2

[2] = test system: Pseudomonas aeruginosa MB9798 vs MB9799; conditions: ratio MITC95 PA_9798/MITC95 PA_9799
How it was run: as §1

[3] = test system: Pseudomonas aeruginosa efflux+ (MB9798), IMP-1; format: cell-based; conditions: concentration restoring susceptibility to imipenem at 2 μg/mL in the presence of a class A, C, D serine β-lactamase inhibitor closely related to relebactam
How it was run: as §1

[4] = test system: Serratia marcescens expressing IMP-1 (CL5741); format: cell-based; conditions: with imipenem 1 μg/ml; 95% inhibition of bacterial growth
How it was run: (§3)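 Imipenem 1 μg/ml + inhibitor; MBL-expressing clinical strains in 1.1×CAMHB, inoculum from saline suspension diluted 1:100; 35° C, 22–24 h; absorbance read-out.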

[5] = test system: Escherichia coli expressing NDM-1 (CLB30005, CLB30016); format: cell-based; conditions: with imipenem 1 μg/ml; 95% inhibition of bacterial growth
How it was run: as §3

[6] = test system: Klebsiella pneumoniae expressing VIM-1 (IHMA599644); format: cell-based; conditions: with imipenem 1 μg/ml; 95% inhibition of bacterial growth
How it was run: as §3

[7] = fluorescence assay, read-out: VIM-1 IC50

Row | Compound | P. aeruginosa expressing IMP-1, efflux − (MB9799) MITC95 [1] [µM] | IC50 (VIM-1; [7]) [nM] | IC50 (NDM-1) [nM] | IC50 (IMP-1) [nM] | Efflux ratio [2] | P. aeruginosa expressing IMP-1, efflux + (MB9798) MITC95 [3] [µM] | Serratia marcescens expressing IMP-1 (CL5741) MITC95 [4] [µM] | Escherichia coli expressing NDM-1 (CLB30016) MITC95 [5] [µM] | Klebsiella pneumoniae expressing VIM-1 (IHMA599644) MITC95 [6] [µM] | IC50 (VIM-1; VIM-1 IC50, fluorescence assay) [nM]
1 | N[C@@H](CO)CNS(=O)(=O)c1ccc(-c2cccc(C3N=CN=N3)c2)c(-c2nn[nH]n2)c1S(N)(=O)=O (stereo partly drawn) [Example 226, N4-((R)-2-amino-3-hydroxypropyl)-2-(2H-tetrazol-5-yl)-3′-(3H-1,2,4-triazol-3-yl)-[1,1′-biphenyl]-3,4-disulfonamide] | 3.125 | 0.948 | 0.747 | 3.24 | 2.00 | 6.25 | 3.125 | 6.25 | 12.5 | –
2 | NCC(CN)NS(=O)(=O)c1ccc(-c2cccc(-c3nc[nH]n3)c2)c(-c2nn[nH]n2)c1S(N)(=O)=O [Example 227, N4-(1,3-diaminopropan-2-yl)-2-(2H-tetrazol-5-yl)-3′-(1H-1,2,4-triazol-3-yl)-[1,1′-biphenyl]-3,4-disulfonamide] | 1.563 | 0.137 | 0.048 | 0.165 | 1.00 | 1.563 | 1.563 | 1.563 | 3.125 | –
3 | NCCNS(=O)(=O)c1ccc(-c2cccc(-c3n[nH]c(N)n3)c2)c(-c2nn[nH]n2)c1S(N)(=O)=O [Example 228, 3′-(5-amino-1H-1,2,4-triazol-3-yl)-N4-(2-aminoethyl)-2-(2H-tetrazol-5-yl)-[1,1′-biphenyl]-3,4-disulfonamide] | 1.563 | 0.15 | 0.0864 | 0.562 | 1.00 | 1.563 | 1.563 | 0.7813 | 3.125 | –
4 | NCC(CN)NS(=O)(=O)c1ccc(-c2cccc(C3N=NC(N)=N3)c2)c(-c2nn[nH]n2)c1S(N)(=O)=O (stereo not drawn) [Example 229, 3′-(5-amino-3H-1,2,4-triazol-3-yl)-N4-(1,3-diaminopropan-2-yl)-2-(2H-tetrazol-5-yl)-[1,1′-biphenyl]-3,4-disulfonamide] | 3.125 | 0.12 | 0.0308 | 0.173 | 0.50 | 1.563 | 3.125 | 0.7813 | 3.125 | –
5 | NC[C@@H](N)CNS(=O)(=O)c1ccc(-c2cccc(-c3n[nH]c(N)n3)c2)c(-c2nn[nH]n2)c1S(N)(=O)=O [Example 230, (R)-3′-(5-amino-1H-1,2,4-triazol-3-yl)-N4-(2,3-diaminopropyl)-2-(2H-tetrazol-5-yl)-[1,1′-biphenyl]-3,4-disulfonamide] | 1.563 | 0.199 | 0.0593 | 0.357 | 1.00 | 1.563 | 1.563 | 1.563 | 3.125 | –
6 | Nc1nc(-c2cccc(-c3ccc(S(=O)(=O)N[C@@H]4CCNC4)c(S(N)(=O)=O)c3-c3nn[nH]n3)c2)n[nH]1 [Example 231, (R)-3′-(5-amino-1H-1,2,4-triazol-3-yl)-N4-(pyrrolidin-3-yl)-2-(2H-tetrazol-5-yl)-[1,1′-biphenyl]-3,4-disulfonamide] | 1.563 | 0.115 | 0.0288 | 0.376 | 1.00 | 1.563 | 1.563 | 1.563 | 3.125 | –
7 | CN1CC[C@@H](NS(=O)(=O)c2ccc(-c3cccc4[nH]c(N)nc34)c(-c3nn[nH]n3)c2S(N)(=O)=O)C1 [Example 232, (R)-4-(2-amino-1H-benzo[d]imidazol-4-yl)-N^1-(1-methylpyrrolidin-3-yl)-3-(2H-tetrazol-5-yl)benzene-1,2-disulfonamide] | 0.7813 | – | 0.0505 | 0.609 | 2.00 | 1.563 | 0.7813 | 0.3906 | 1.563 | 0.16
8 | Nc1nc2c(-c3ccc(S(=O)(=O)N[C@@H]4CCNC4)c(S(N)(=O)=O)c3-c3nn[nH]n3)cc(I)cc2[nH]1 [Example 234, (R)-4-(2-amino-6-iodo-1H-benzo[d]imidazol-4-yl)-N^1-(pyrrolidin-3-yl)-3-(2H-tetrazol-5-yl)benzene-1,2-disulfonamide] | 0.7813 | 0.0829 | 0.0157 | 0.14 | 1.00 | 0.7813 | 0.7813 | 0.7813 | 0.7813 | –
9 | NS(=O)(=O)c1c(S(=O)(=O)N[C@@H]2CCNC2)ccc(-c2cccc3[nH]nnc23)c1-c1nn[nH]n1 [Example 235, (R)-4-(1H-benzo[d][1,2,3]triazol-4-yl)-N^1-(pyrrolidin-3-yl)-3-(2H-tetrazol-5-yl)benzene-1,2-disulfonamide] | 1.563 | – | 0.0308 | 0.44 | 0.50 | 0.7813 | 0.7813 | 1.563 | 3.125 | 0.105
10 | NCCNS(=O)(=O)c1ccc(-c2cccc3[nH]nnc23)c(-c2nn[nH]n2)c1S(N)(=O)=O [Example 236] | 0.7813 | 0.13 | 0.0647 | 0.544 | 1.00 | 0.7813 | 0.7813 | 3.125 | 1.563 | –
11 | C[C@H](CN)NS(=O)(=O)c1ccc(-c2cccc3[nH]nnc23)c(-c2nn[nH]n2)c1S(N)(=O)=O [Example 237] | 1.563 | 0.0552 | 0.0134 | 0.12 | 0.50 | 0.7813 | 1.563 | 3.125 | 1.563 | –

From US10221163B2 (priority 2015, dated 2019)
